The values that follow come from patent publication US10710996B2, “Pyrido-azaheterecydic compound and preparation method and use thereof” (SHANGHAI INSTITUTE OF MATERIA MEDICA, CHINESE ACADEMY OF …, priority 2015, dated 2020).

The target of one assay is T1, c-Met kinase (Homo sapiens, UniProt P08581).
T1 construct: c-Met kinase domain recombinant protein diluted with 49 μL of the reaction buffer was added
Briefly: Inhibitory effect on c-Met kinase activity at molecular level (ELISA).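 Also: recombinant c-Met kinase domain with 5 µM ATP, 1 h at 37 °C, substrate phosphorylation detected by anti-phosphotyrosine PY99 ELISA at 490 nm versus DMSO negative control, ATP-free wells as blank.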 In kind it is biochemical. On the technique in general: ELISA stands for enzyme-linked immunosorbent assay.

The next assay concerns EBC-1 cells. Briefly: Inhibition of c-Met-mediated EBC-1 cell proliferation (SRB staining). Format: cell-based. Particulars: Homo sapiens, 72 hours treatment. As for the experimental part: The inhibitory effect of the compounds on the growth of non-small cell cancer EBC-1 cell (a cell line in which Met is continually activated due to the amplification of MET gene, and is a Met-dependent tumor cell line) was measured by sulforhodamine B (SRB) staining assay. A certain amount of EBC-1 cells in their logarithmic growth phase were seeded in 96-well plates at 90 μL per well and cultured overnight, then 10 μL of different concentrations of compounds or solvent control were added thereto, three wells for each concentration. After treated by the compound for 72 hours, the adherent cells were removed of culture medium and fixed with 10% (w/v) trichloroacetic acid (100 μL/well) at 4° C. for 1 hr followed by rinsing with distilled water five times. After drying at room temperature, 100 μL of SRB solution (dissolved in 1% glacial acetic acid at 4 mg/mL) was added to each well to incubate and stain the cells for 15 min at room temperature, then unbound SRB was washed off with 1% glacial acetic acid for five times. After drying at room temperature, 100 μL of 10 mM Tris solution was added to each well. The optical density (OD value) at 515 nm was read on a VERSMax microplate reader. […] The experiment was repeated twice. The IC50 data was calculated as a range based on the test results of concentrations set in the initial screening test.
(In general: The SRB assay estimates cell density from bound dye.)

T1 sequence (P08581 1078-1345 limits assumed): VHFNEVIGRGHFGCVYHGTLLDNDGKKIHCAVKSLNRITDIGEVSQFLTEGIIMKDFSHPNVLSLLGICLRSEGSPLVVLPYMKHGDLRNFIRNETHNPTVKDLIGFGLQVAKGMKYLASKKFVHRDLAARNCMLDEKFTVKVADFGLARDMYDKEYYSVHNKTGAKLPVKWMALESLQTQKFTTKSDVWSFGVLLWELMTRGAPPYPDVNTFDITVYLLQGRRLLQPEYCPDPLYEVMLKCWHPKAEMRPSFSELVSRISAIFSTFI
Experimental for c-Met kinase: Experiment for Preliminarily Evaluating the Inhibitory Effect on the Activity of Receptor Tyrosine Kinase c-Met at Molecular Level
After discarding the liquid in the wells, the plate was washed with T-PBS (0.1% Tween-20 in PBS) in an amount of 200 μL/well three times, each for 5 minutes. The ELISA plate was dried in an oven at 37° C. for 1-2 hours. 50 μl of adenosine triphosphate (ATP) solution diluted with reaction buffer (50 mM 4-hydroxyethylpiperazine ethanesulfonic acid (HEPES) pH 7.4, 50 mM MgCl2, 0.5 mM MnCl2, 0.2 mM Na3VO4, 1 mM dithiothreitol (DTT)) to a final concentration of 5 μM was added to each well. The compounds were diluted to an appropriate concentration with DMSO (1 μL/well) or a solution containing DMSO in a corresponding concentration (negative control well), and then c-Met kinase domain recombinant protein diluted with 49 μL of the reaction buffer was added therein to initiate the reaction, with two ATP-free control wells for each test. The plate was placed in a shaker (100 rpm) at 37° C. for reacting 1 hour, and washed with T-PBS three times. Primary antibody PY99 diluent was added in an amount of 100 μL/well to allow the reaction in a shaker at 37° C. for 0.5 hour, and then the plate was washed with T-PBS three times. Then the secondary antibody horseradish peroxidase labeled goat anti-mouse IgG diluent was added in an amount of 100 μL/well, and the plate was placed in a shaker at 37° C. for reacting 0.5 hour, and then washed with T-PBS three times. 2 mg/ml of o-phenylenediamine (OPD) coloring solution (diluted with 0.1 M citric acid-sodium citrate buffer (pH=5.4) containing 0.03% H2O2) was then added at 100 μL/well and reacted at 25° C. for 1-10 min with light blocked (ultrasound was required to dissolve OPD, the coloring solution was prepared when needed). The reaction was stopped by adding 2 M of H2SO4 in an amount of 50 μL/well, and a wavelength-adjustable microplate reader SPECTRA MAX 190 was read at 490 nm.
The inhibition rate of the sample was calculated by the following equation:

Turning to `O=C(Nc1ccc(F)cc1)C1(C(=O)Nc2ccc(Oc3ccnc4cc(Cl)ncc34)c(F)c2)CC1` [Compound 1S, N-(4-((7-chloro-1,6-naphthyridin-4-yl)oxy)-3-fluorophenyl)-N-(4-fluorophenyl) cyclopropyl-1,1-dicarboxamide], the IC50 – broadly, the midpoint of a concentration-inhibition curve – against c-Met kinase is 1000 to 10000 nM; in the assay with EBC-1 cells it was 100 to 1000 nM.

With `CN(C)c1cc2nccc(Oc3ccc(NC(=O)C4(C(=O)Nc5ccc(F)cc5)CC4)cc3F)c2cn1` [Compound 2S, N-(4-((7-(dimethylamino)-1,6-naphthyridin-4-yl)oxy)-3-fluorophenyl)-N-(4-fluorophenyl)cyclopropyl-1,1-dicarboxamide], the values for the IC50 at c-Met kinase and in the assay with EBC-1 cells were 1 to 10 nM and 10 to 100 nM, respectively.

Regarding `COc1cc2nccc(Oc3ccc(NC(=O)C4(C(=O)Nc5ccc(F)cc5)CC4)cc3F)c2cn1` [Compound 3S, N-(4-((7-methoxy-1,6-naphthyridin-4-yl)oxy)-3-fluorophenyl)-N-(4-fluorophenyl)cyclopropyl-1,1-dicarboxamide], the IC50 against c-Met kinase is 1 to 10 nM; in the assay on EBC-1 cells, 100 to 1000 nM.

For the compound `CN1CCC(COc2cc3nccc(Oc4ccc(NC(=O)C5(C(=O)Nc6ccc(F)cc6)CC5)cc4F)c3cn2)CC1` [Compound 9S, N-(3-fluoro-4-((7-((1-methylpiperidin-4-yl)methoxy)-1,6-naphthyridin-4-yl)oxy)phenyl)-N-(4-fluorophenyl) cyclopropyl-1,1-dicarboxamide], the IC50 was in the range of 1 to 10 nM against c-Met kinase and 10 to 100 nM with EBC-1 cells.

As for `CN1CCN(CCOc2cc3nccc(Oc4ccc(NC(=O)C5(C(=O)Nc6ccc(F)cc6)CC5)cc4F)c3cn2)CC1` [Compound 11S, N-(3-fluoro-4-((7-(2-(4-methylpiperazin-1-yl)ethoxy)-1,6-naphthyridin-4-yl)oxy)phenyl)-N-(4-fluorophenyl) cyclopropyl-1,1-dicarboxamide], the values for the half-inhibitory concentration (IC50) against c-Met kinase and with EBC-1 cells were 1 to 10 nM and 100 to 1000 nM, respectively.

In the case of `O=C(Nc1ccc(F)cc1)C1(C(=O)Nc2ccc(Oc3ccnc4cc(OCCN5CCOCC5)ncc34)cc2)CC1` [Compound 12S, N-(4-fluorophenyl)-N-(4-((7-(2-morpholinoethoxy)-1,6-naphthyridin-4-yl)oxy)phenyl)cyclopropyl-1,1-dicarboxamide], the IC50 against c-Met kinase was in the range of 1 to 10 nM; with EBC-1 cells, 100 to 1000 nM.

In the case of `O=C(Nc1ccc(F)cc1)C1(C(=O)Nc2ccc(Nc3ccnc4cc(OCCN5CCOCC5)ncc34)cc2)CC1` [Compound 13S, N-(4-fluorophenyl)-N-(4-((7-(2-morpholinoethoxy)-1,6-naphthyridin-4-yl)amino)phenyl)cyclopropyl-1,1-dicarboxamide], the IC50 was 1 to 10 nM on c-Met kinase and 100 to 1000 nM in the assay on EBC-1 cells.

For `O=C(Nc1ccc(Oc2ccnc3cc(OCCN4CCOCC4)ncc23)c(F)c1)c1cccn(-c2ccc(F)cc2)c1=O` [Compound 15S, N-(3-fluoro-4-((7-(2-morpholinoethoxy)-1,6-naphthyridin-4-yl)oxy)phenyl)-1-(4-fluorophenyl)-2-oxo-1,2-dihydropyridine-3-carboxamide], the 50% inhibitory concentration (IC50) was in the range of 1 to 10 nM at c-Met kinase and 10 to 100 nM in the assay with EBC-1 cells.

Consider `O=C(Nc1ccc(Oc2ccnc3cc(OCCN4CCOCC4)ncc23)c(F)c1)c1c[nH]cc(-c2ccccc2)c1=O` [Compound 20S, N-(3-fluoro-4-((7-(2-morpholinoethoxy)-1,6-naphthyridin-4-yl)oxy)phenyl)-4-oxo-5-phenyl-1,4-dihydropyridine-3-carboxamide], for which the IC50 on c-Met kinase is 1 to 10 nM; in the assay on EBC-1 cells it was 10 to 100 nM.

Consider `O=C(Nc1ccc(Oc2ccnc3cc(OCCN4CCOCC4)ncc23)c(F)c1)c1c[nH]cc(-c2ccc(F)cc2)c1=O` [Compound 22S, N-(3-fluoro-4-((7-(2-morpholinoethoxy)-1,6-naphthyridin-4-yl)oxy)phenyl)-5-(4-fluorophenyl)-4-oxo-1,4-dihydropyridine-3-carboxamide], for which the results for the IC50 against c-Met kinase and in the assay on EBC-1 cells were 1 to 10 nM and 10 to 100 nM, respectively.

For `O=C(Nc1ccc(F)c(F)c1)C1(C(=O)Nc2ccc(Oc3ccnc4cc(OCCN5CCOCC5)ncc34)c(F)c2)CC1` [Compound 23S, N-(3,4-difluorophenyl)-N-(3-fluoro-4-((7-(2-morpholinoethoxy)-1,6-naphthyridin-4-yl)oxy)phenyl) cyclopropyl-1,1-dicarboxamide], the IC50 is 1 to 10 nM against c-Met kinase and 100 to 1000 nM in the assay on EBC-1 cells.

For the compound `COc1cc(NC(=O)C2(C(=O)Nc3ccc(Oc4ccnc5cc(OCCN6CCOCC6)ncc45)c(F)c3)CC2)ccc1F` [Compound 24S, N-(4-fluoro-3-methoxyphenyl)-N-(3-fluoro-4-((7-(2-morpholinoethoxy)-1,6-naphthyridin-4-yl)oxy)phenyl) cyclopropyl-1,1-dicarboxamide], the IC50 lay in the range of 1 to 10 nM at c-Met kinase and 100 to 1000 nM with EBC-1 cells.

Regarding `O=C(Nc1ccc(F)cc1)C1(C(=O)Nc2ccc(Oc3ccnc4cc(OCCc5ccncc5)ncc34)c(F)c2)CC1` [Compound 25S, N-(3-fluoro-4-((7-(2-(pyridin-4-yl)ethoxy)-1,6-naphthyridin-4-yl)oxy)phenyl)-N-(4-fluorophenyl)cyclopropyl-1,1-dicarboxamide], the IC50 was in the range of 1 to 10 nM at c-Met kinase and 100 to 1000 nM with EBC-1 cells.

`CC(CN1CCOCC1)Oc1cc2nccc(Oc3ccc(NC(=O)C4(C(=O)Nc5ccc(F)cc5)CC4)cc3F)c2cn1` (stereo not shown) [Compound 26S, N-(3-fluoro-4-((7-((1-morpholinopropan-2-yl)oxy)-1,6-naphthyridin-4-yl)oxy)phenyl)-N-(4-fluorophenyl) cyclopropyl-1,1-dicarboxamide]: the results for the IC50 against c-Met kinase and in the assay on EBC-1 cells were 10 to 100 nM and 100 to 1000 nM, respectively.

With `O=C1COCCN1CCOc1cc2nccc(Oc3ccc(NC(=O)C4(C(=O)Nc5ccc(F)cc5)CC4)cc3F)c2cn1` [Compound 37S, N-(3-fluoro-4-((7-(2-(3-oxomorpholino)ethoxy)-1,6-naphthyridin-4-yl)oxy)phenyl)-N-(4-fluorophenyl) cyclopropyl-1,1-dicarboxamide], the figures for the IC50 at c-Met kinase and with EBC-1 cells were 1 to 10 nM and 10 to 100 nM, respectively.

Regarding `Cn1cc(-c2cc3nccc(Oc4ccc(NC(=O)C5(C(=O)Nc6ccc(F)cc6)CC5)cc4F)c3cn2)cn1` [Compound 38S, N-(3-fluoro-4-((7-(1-methyl-1H-pyrazol-4-yl)-1,6-naphthyridin-4-yl)oxy)phenyl)-N-(4-fluorophenyl)cyclopropyl-1,1-dicarboxamide], the IC50 against c-Met kinase and in the assay with EBC-1 cells was 1 to 10 nM throughout.

With `O=C(Nc1ccc(F)cc1)C1(C(=O)Nc2ccc(Oc3ccnc4cc(-c5cn[nH]c5)ncc34)c(F)c2)CC1` [Compound 39S, N-(4-((7-(1H-pyrazol-4-yl)-1,6-naphthyridin-4-yl)oxy)-3-fluorophenyl)-N-(4-fluorophenyl)cyclopropyl-1,1-dicarboxamide], the IC50 on c-Met kinase and in the assay on EBC-1 cells was 1 to 10 nM throughout.

Turning to `CS(=O)(=O)n1cc(-c2cc3nccc(Oc4ccc(NC(=O)C5(C(=O)Nc6ccc(F)cc6)CC5)cc4F)c3cn2)cn1` [Compound 40S, N-(3-fluoro-4-((7-(1-(methylsulfonyl)-1H-pyrazol-4-yl)-1,6-naphthyridin-4-yl)oxy)phenyl)-N-(4-fluorophenyl) cyclopropyl-1,1-dicarboxamide], the IC50 at c-Met kinase lay in the range of 1 to 10 nM; with EBC-1 cells, 10 to 100 nM.

On to `CC(C)n1cc(-c2cc3nccc(Oc4ccc(NC(=O)C5(C(=O)Nc6ccc(F)cc6)CC5)cc4F)c3cn2)cn1` [Compound 41S, N-(3-fluoro-4-((7-(1-isopropyl-1H-pyrazol-4-yl)-1,6-naphthyridin-4-yl)oxy)phenyl)-N-(4-fluorophenyl) cyclopropyl-1,1-dicarboxamide], for which the IC50 against c-Met kinase and in the assay on EBC-1 cells was 1 to 10 nM each time.

For the compound `O=C(Nc1ccc(F)cc1)C1(C(=O)Nc2ccc(Oc3ccnc4cc(-c5cnn(C6CCNCC6)c5)ncc34)c(F)c2)CC1` [Compound 42S, N-(3-fluoro-4-((7-(1-(piperidin-4-yl)-1H-pyrazol-4-yl)-1,6-naphthyridin-4-yl)oxy)phenyl)-N-(4-fluorophenyl) cyclopropyl-1,1-dicarboxamide], the IC50 against c-Met kinase and in the assay on EBC-1 cells was 1 to 10 nM in each case.

Turning to `CC(C)N1CCC(n2cc(-c3cc4nccc(Oc5ccc(NC(=O)C6(C(=O)Nc7ccc(F)cc7)CC6)cc5F)c4cn3)cn2)CC1` [Compound 43S, N-(3-fluoro-4-((7-(1-(1-isopropylpiperidin-4-yl)-1H-pyrazol-4-yl)-1,6-naphthyridin-4-yl)oxy)phenyl)-N-(4-fluorophenyl)cyclopropyl-1,1-dicarboxamide], the IC50 against c-Met kinase was in the range of 1 to 10 nM; in the assay on EBC-1 cells, 100 to 1000 nM.

As to `O=C(Nc1ccc(F)cc1)C1(C(=O)Nc2ccc(Oc3ccnc4cc(Cn5ccnc5)ncc34)c(F)c2)CC1` [Compound 44S, N-(4-((7-((1H-imidazol-1-yl)methyl)-1,6-naphthyridin-4-yl)oxy)-3-fluorophenyl)-N-(4-fluorophenyl)cyclopropyl-1,1-dicarboxamide], the IC50 was in the range of 10 to 100 nM against c-Met kinase and 100 to 1000 nM in the assay with EBC-1 cells.

Take `Cc1noc(C)c1-c1cc2nccc(Oc3ccc(NC(=O)C4(C(=O)Nc5ccc(F)cc5)CC4)cc3F)c2cn1` [Compound 45S, N-(4-((7-(3,5-dimethylisoxazol-4-yl)-1,6-naphthyridin-4-yl)oxy)-3-fluorophenyl)-N-(4-fluorophenyl) cyclopropyl-1,1-dicarboxamide]: the IC50 on c-Met kinase lay within 100 to 1000 nM; in the assay with EBC-1 cells it was 1000 to 10000 nM.
